The text below walks through data of patent US20050215490A1, “Polyene polyketides and methods of treating bacterial infections” (Ecopia BioSciences, Inc., priority 2003, published 2005).

This experiment deals with Staphylococcus aureus (Smith strain, ATCC™ 13709). Briefly: In vivo efficacy, acute lethal S. aureus infection in mice. The settings on record: ICR mice; i.p. one hour post infection; lowest dose tested; 100% protection. The method, then: B. Efficacy: In vivo efficacy studies were performed on ICR mice (supplied by Charles River Laboratories, Wilmington, Mass.) having a bodyweight of 20±2 g. Mice (38) were inoculated i.p. with an LD90-100 dose (1×10^6 CFU/mouse) of Staphylococcus aureus (Smith strain, ATCC™ 13709) suspended in 0.5 mL of BHI containing 5% mucin. Compound 1 at doses 20, 30, 40, 50, 60 and 70 mg/kg (formulated in 20% propylene glycol/water for a total volume of 10 μL/g of weigth) was administered i.p. one hour post infection (5 mice for each concentration). Another group of 5 mice was treated i.v. with a 10 mg/kg dose of Vancomycin. A last group of 3 mice was administered vehicle only. Mortality was recorded for 7 days.

On to `CC(=CC=CC=CC=CC=CC(C)C(OC1OC(C(=O)O)C(O)C(O)C1O)C(C)=CC(C)CCCC=CC(C)CC=CCCCN(C)C(=N)N)C(=O)NC1=C(O)CCC1=O` (stereo not shown) [Compound 1, 3,4,5-trihydroxy-6-[1-[11-(2-hydroxy-5-oxocyclopent-1-enylcarbamoyl)-1-methyldodeca-2,4,6,8,10-pentaenyl]-2,4,10-trimethyl-16-(N-methyl-guanidino)-hexadeca-2,8,12-trienyloxy]-tetrahydropyran-2-carboxylic acid], for which the “In vivo efficacy: S. aureus (Smith), protective dose” value is “≦20 mg/kg”.
